The record followed here is ChEMBL document CHEMBL2074057, “Active secretion of drugs from the small intestinal epithelium in rats by P-glycoprotein functioning as an absorption barrier” (J Pharm Pharmacol, 1996).

The target in data set [1] is T1, ATP-dependent translocase ABCB1 (Homo sapiens, UniProt P08183). The data set is described as follows: TP_TRANSPORTER: uptake in K562 and K562/ADR cell. It counts as functional, cell-based.
Data set [2] has as its target T1, ATP-dependent translocase ABCB1. The data set is described as follows: TP_TRANSPORTER: transepithelial transport (basal to apical) in Caco-2 cells. Type of data set: functional, cell-based.

T1 sequence (P08183 whole entry): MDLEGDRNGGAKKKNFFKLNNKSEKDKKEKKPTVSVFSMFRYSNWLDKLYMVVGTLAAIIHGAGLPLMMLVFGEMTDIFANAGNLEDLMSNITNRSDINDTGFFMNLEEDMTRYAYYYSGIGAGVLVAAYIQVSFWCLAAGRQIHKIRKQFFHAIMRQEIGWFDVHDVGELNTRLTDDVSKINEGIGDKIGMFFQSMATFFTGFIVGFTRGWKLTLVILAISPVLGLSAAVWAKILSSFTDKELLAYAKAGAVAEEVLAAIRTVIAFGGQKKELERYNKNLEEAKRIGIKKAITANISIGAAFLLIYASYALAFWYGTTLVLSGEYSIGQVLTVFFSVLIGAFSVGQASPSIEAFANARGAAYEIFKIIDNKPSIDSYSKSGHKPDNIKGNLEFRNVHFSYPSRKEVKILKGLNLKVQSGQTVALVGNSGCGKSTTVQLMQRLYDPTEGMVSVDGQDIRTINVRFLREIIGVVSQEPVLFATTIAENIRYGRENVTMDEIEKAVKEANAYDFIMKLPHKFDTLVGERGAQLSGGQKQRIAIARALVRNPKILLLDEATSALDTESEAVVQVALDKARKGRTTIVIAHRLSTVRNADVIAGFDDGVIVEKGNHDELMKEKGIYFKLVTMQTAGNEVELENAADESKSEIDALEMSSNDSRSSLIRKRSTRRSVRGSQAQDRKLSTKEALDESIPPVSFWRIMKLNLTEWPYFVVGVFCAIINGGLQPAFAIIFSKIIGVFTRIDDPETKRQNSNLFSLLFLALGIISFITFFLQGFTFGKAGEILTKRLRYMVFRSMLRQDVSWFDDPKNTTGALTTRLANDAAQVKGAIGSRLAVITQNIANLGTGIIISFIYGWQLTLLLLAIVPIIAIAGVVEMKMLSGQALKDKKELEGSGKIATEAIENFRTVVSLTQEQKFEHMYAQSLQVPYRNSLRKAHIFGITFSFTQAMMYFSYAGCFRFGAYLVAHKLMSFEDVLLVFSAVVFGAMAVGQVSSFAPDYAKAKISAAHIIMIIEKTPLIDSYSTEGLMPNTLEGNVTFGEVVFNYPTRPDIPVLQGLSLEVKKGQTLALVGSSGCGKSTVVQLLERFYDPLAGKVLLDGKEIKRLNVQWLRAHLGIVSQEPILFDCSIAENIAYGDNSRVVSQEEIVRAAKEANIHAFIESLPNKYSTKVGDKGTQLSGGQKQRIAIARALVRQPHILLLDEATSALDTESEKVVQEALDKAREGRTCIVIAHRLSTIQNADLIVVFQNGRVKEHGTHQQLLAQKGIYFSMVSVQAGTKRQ

In the case of `CC(C)(C)NC[C@H](O)COc1nsnc1N1CCOCC1` [TIMOLOL], the Activity entry in data set [1] was “substrate [+]”.

Turning to `CC(C)(C)NCC(O)COc1cccc2c1CC(O)C(O)C2` (stereo not given) [NADOLOL], the Activity result in data set [1] was “substrate [+]”.

Consider `CCN(CC)C(=O)Nc1ccc(OCC(O)CNC(C)(C)C)c(C(C)=O)c1` (stereo not given) [CELIPROLOL], for which, in data set [1], the Activity entry was “substrate [+]”.

Turning to `CCCC(=O)Nc1ccc(OCC(O)CNC(C)C)c(C(C)=O)c1` (stereo not given) [ACEBUTOLOL], the Activity result in data set [1] and in data set [2] was “substrate [+]” in each case.
